Experimental findings from PMC11274643, “Design, Synthesis, Characterization, and Cytotoxicity of New Pyrazolylmethylene-2-thioxoimidazolidin-4-one Derivatives towards Androgen-Sensitive LNCaP Prostate Cancer Cells” (Biomolecules, 2024) are described below.

The test system of data set [1] is AR+LNCaP cells. Put plainly: DNA content at cell cycle stages (Propidium Iodide flow cytometry). The class given is cell-based, human. To be noted: IC50 concentration, 1 nM DHT. As for the experimental part: The amount of DNA contents of AR^+LNCaP cells stimulated with 1 nM DHT and treated with representative test compounds 3i and 3k at the different stages of the cell cycle were quantitatively evaluated as described previously. […] The Ab139418–Propidium Iodide Flow Cytometry Kit for Cell Cycle Analysis (ab139418, Abcam, Cambridge, UK) was employed for this assay following the procedures provided by the supplier.
Firstly, the ab139418-Propidium Iodide Flow Cytometry Kit for Cell Cycle Analysis (Bio vision, Boston, MA, USA) was used to quantify DNA contents at each cell cycle stage as an indicator of the cell cycle growth arrest.

For data set [2], the system named is active human caspase-3 in AR+LNCaP cells. Put plainly: Detection of active Caspase 3 in AR+LNCaP cell lysates (Invitrogen Elisa kit). Set-up: Caspase 3 Conc. (Average): unit not given here. The class given is cell-based. The method, then: Untreated AR^+LNCaP and Enzalutamide-treated AR^+LNCaP were used as negative and positive controls, respectively. AR^+LNCaP cells were cultured in 96-well plates at a cell density of 1 × 10^4 cells/well. Cells were then lysed with 50 µL lysis buffer/well supplemented with the Invitrogen Elisa kit for detection of active human caspase-3 (Invitrogen, Camarillo, CA, USA). Plates were frozen at −80 °C for 30 min and then thawed. The lysate was mixed with 2 Z-DEVD-R110 substrate and incubated at room temperature for 30 min. A fluorescence microplate reader (Tecan, Mainz-Kastel, Germany), was used to measure fluorescence via excitation at 496 nm and emission detection at 520 nm. Values were normalized with total protein content. Active caspase 3 accumulation was determined based on standard dilution series of Human Caspase-3 samples provided with the kit. […]

The subject of data set [3] is AR+LNCaP androgen-sensitive human prostate cancer cell line. In words: MTT in vitro cytotoxicity assay, 24 h incubation. The format is cell-based. The method, then: (§1) The antitumor properties of pyrazolylmethylene-2-thioxoimidazolidin-4-one derivatives (3a–p) against androgen-sensitive (AR^+LNCaP; ATCC CRL-1740, Accession: CVCL_0395) and androgen-insensitive (AR^-PC-3; ATCC CRL-1435, Accession: CVCL_D5ZS) human prostate cancer cell lines in addition to normal human lung fibroblast cell line (Wi38, Accession: CVCL_2759) were evaluated by MTT assay. AR^+LNCaP, AR^-PC-3, and Wi38 cell lines were purchased frozen in liquid nitrogen from Egyptian Company for Production of Vaccines, Sera and Drugs, Cairo, Egypt (VACSERA). Tumor cell lines were stored as monolayer cultures in DMEM supplemented with 10% FBS and 1% penicillin–streptomycin. MTT assay was carried out as described previously in the literature. In brief, AR^+LNCaP, AR^-PC-3, and Wi38 cells were cultured into 96-well plates containing 100 µL of culture medium per each well. […] A control containing only culture medium was also applied. The assay was performed in triplicate. The cells were incubated overnight to grow at 37 °C in 5% CO2. After removing the growth medium, 100 µL of MTT (0.4 mg/mL of PBS) were added. After 24 h of incubation, the supernatant was removed and 100 µL of DMSO (Sigma Aldrich, Germany) were then added to each sample. Absorbance at 550 nm was measured. The formula (Reading of extract/Reading of negative control) × 100 was applied to calculate the viability percentage. The IC50 value of test compounds (3a–p) was also determined using CPE measurements of normal Wi38 cells (normal human lung fibroblast cells). The MTT assay was repeated with the test compounds (3i, 3k, 3o, 3j, 3p, and 3m) using the three cell types which were stimulated by 1 nM DHT after 48 h of incubation. IC50 values were estimated using Graph Pad Prism computer software (International Scientific Community, San Diego, CA, USA) from linear regression analysis of the concentration–response curves plotted for each tested compound [36].
(§2) In vitro cytotoxicity assay was performed to elucidate the antitumor properties of the synthesized derivatives of pyrazolylmethylene-2-thioxoimidazolidin-4-one. […] The cytotoxicity assay was performed using MTT assay as described in the Materials and Methods Section 2.4.1. The test compounds were dissolved in DMSO as stock solutions (<0.5% (v/v)) and stored in the dark at −20 °C. The human prostate cancer cells and normal human lung fibroblast cells were subjected to variable doses of the compounds for 24 h.

The test system of data set [4] is AR-PC-3 androgen-insensitive human prostate cancer cell line. Put plainly: MTT in vitro cytotoxicity assay, 24 h incubation. The format is cell-based. As for the experimental part: as §1, §2
Data set [5] has as its system Wi38 normal human lung fibroblast cell line. Put plainly: MTT in vitro cytotoxicity assay, 24 h incubation. To be noted: WI-38. The class given is cell-based. The method, then: as §1, §2
In data set [6] the test system is AR+LNCaP cells. In words: Cell apoptosis assay (Annexin V-FITC, flow cytometry). The class given is cell-based, human. The following applies: IC50 concentration, 1 nM DHT, 24 h. As for the experimental part: Cell apoptosis assay was performed to ensure the efficacy of compounds 3i and 3k against the progression of AR^+LNCaP tumor cell growth in the presence of 1 nM DHT. Untreated AR^+LNCaP and Enzalutamide-treated AR^+LNCaP were used in this assay as negative and positive controls, respectively. AR^+LNCaP cells were precultured in 25 cm^2 flasks. Briefly, 1 nM DHT was then added to the growing cells. […] AR^+LNCaP cells were harvested and fixed with 70% (v/v) ethanol in FBS (Sigma-Aldrich, Germany), then maintained at 4 °C overnight. The cells were resuspended in FBS containing 0.1% (v/v) Triton X-100, 40 µg/mL […], and 0.1 mg/mL RNase then incubated in a dark chamber at 37 °C for 30 min. A flow-cytometer (Becton Dickinson, San Jose, CA, USA) supplemented with an argon ion laser at a wavelength of 488 nm was used to analyze the AR^+LNCaP cell apoptotic stages. Based on the protocol described by Ozgur et al. (2003), analysis of the data was implemented using Multicycle Software (Phoenix Flow Systems, San Diego, CA, USA; http://www.phoenixflow.com/index.html).
The active compounds 3i and 3k were further analyzed to evaluate their antitumor properties against the growth of the AR^+LNCaP prostate cancer cell line. […] Untreated AR^+LNCaP cells and Enzalutamide reference drug were also used as negative and positive controls in this assay, respectively.
A general note: Flow cytometry measures light scatter and fluorescence of single cells or particles in a stream.

The subject of data set [7] is AR+LNCaP androgen-sensitive human prostate cancer cell line. In words: MTT cytotoxicity assay in presence of 1 nM DHT, 48 h incubation. The class given is cell-based. The method, then: as §1
(§3) The assay was performed in the presence of dihydrotestosterone (1 nM DHT) for 48 h of incubation as previously described. DHT is a potent inducer of androgens that enhances prostate cancer disease progression.
A general note: Formazan colour is commonly taken as a measure of viable cells.

Data set [8] concerns AR-PC-3 androgen-insensitive human prostate cancer cell line. The description is as above. The format is cell-based. The method, then: as §1, §3
The subject of data set [9] is Wi38 normal human lung fibroblast cell line. Described as above. The class given is cell-based. To be noted: WI-38, read-out: IC50 Wi38. As for the experimental part:
as §1, §3

For orientation: IC50 means the midpoint of a concentration-inhibition curve. What is called melting point is the temperature of the solid-liquid transition.

With `O=C1NC(=S)NC1=Cc1cn(-c2ccc(F)cc2)nc1-c1ccc(C(F)(F)F)cc1` [Compound 3k, 5-((1-(4-Fluorophenyl)-3-(4-(trifluoromethyl)phenyl)-1H-pyrazol-4-yl)methylene)-2-thioxoimidazolidin-4-one], the melting point lay within 210 to 212 °C. In [1], the “DNA Content (%) G0–G1” value stood at 65.21%, the “DNA Content (%) G2/M” value turned out to be 19.18% and the “DNA Content (%) S” value amounted to 15.61%. The “active Caspase 3 fold change compared to untreated cells” value in data set [2] (IC50 concentration, 1 nM DHT, AR+LNCaP lysate) is recorded as 5.4 fold. Moreover, the “induction of active caspase 3 as a percentage of the reference drug Enzalutamide” value in data set [2] (IC50 concentration, AR+LNCaP) stood at 81.2%. Moreover, the “Caspase 3 fld” value in data set [2] (LNCaP, fold of control, supplement lab report) worked out at 5.304. Also, the “Caspase 3” value in data set [2] (LNCaP, supplement lab report) amounted to 407.9 pg/mL. Moreover, the “Caspase 3 Conc. (Average)” value in [2] (supplement ELISA read-out, average of two wells) is reported as 407.9. In data set [3] (Homo sapiens, MTT), this molecule yielded an IC50 of 10.3 ± 0.14 µM. Further, the “Selective Index Wi38/Lncap” value in data set [3] (ratio of IC50 values) is recorded as 3.2. In addition, half-maximal inhibition in data set [4] (Homo sapiens, MTT) (IC50) was put at 22.5 ± 0.29 µM. Also, the “Selective Index Wi38/PC-3” value in [4] (ratio of IC50 values) was 1.5. The molecule also registered a half-inhibitory concentration (IC50) in [5] of 32.81 ± 0.08 µM. Further, in data set [6], the “Early Apoptosis (%)” value was determined as 12.11%, the “Late Apoptosis (%)” value was found to be 16.89%, the “Necrotic Cells (%)” value is recorded as 6.02% and the “Total Apoptosis (%)” value was 35.02%. For the same molecule, the IC50 in data set [7] (Homo sapiens) is 5.22 ± 0.12 µM. Besides, the “Selectivity AR-/AR+” value in data set [7] (IC50 PC-3 / IC50 LNCaP) came out at 2.7. Moreover, the IC50 in [8] came out at 13.9 ± 0.18 µM. In [9], the CC50 turned out to be 19.81 ± 0.07 µM.
